Measurements: patent publication US20080274192A1, “Pharmaceutical Compositions Comprising an Amorphous Form of a Vegf-R-Inhibitor” (PFIZER INC., priority 2005, published 2008)
Converted amounts (≈) assume the structure as drawn.

What was measured:
Assay type in all cases: physicochemical
pKa of Compound A = details: crystalline polymorphic Form IV
[1] = solubility in model fasted duodenal solution; details: fassif, pH 6.5, 37° C.
Description: Compound A can exist in several different crystalline forms, as described in U.S. Provisional Application 60/624,665, filed on Nov. 2, 2004, which is incorporated herein by reference. Compound A in the crystalline form referred to as polymorphic Form IV has a pKa of about 4.2, and a solubility that is dependent on the pH of the solution, with the solubility being higher at low pH than at high pH. […] This pH-dependent solubility combined with a low in vivo rate of absorption results in low oral bioavailability, as well as significant subject-to-subject pharmacokinetic variability, for crystalline Compound A. Accordingly, there is a need to improve the bioavailability and reduce pharmacokinetic variability of Compound A relative to its crystalline form.

[2] = in vitro dissolution test in MFD solution, dosed as oral powder for constitution; details: for AUC90 (area under the concentration-versus-time curve during the initial ninety minutes) / MDC90 (maximum dissolved concentration during the initial ninety minutes): MFD solution pH 6.5, 37° C., 200 μgA/mL dosed; for MDC90 (maximum dissolved concentration during the initial ninety minutes): pre-wetted with PBS/Methocel A/HPMCAS-H (OPC model)
Procedure: An in vitro dissolution test was performed to determine the dissolution performance of amorphous Compound A relative to crystalline Compound A. For this test, a sufficient amount of material was added to a microcentrifuge test tube so that the concentration of Compound A would have been 200 μgA/mL, if all of the compound had dissolved. The test was run in duplicate. First, 50 μL PBS containing 0.5 wt % Methocel A and 5 mg/mL HPMCAS-H was added to the sample in the tube and mixed using a vortex mixer, to model an oral powder for constitution dosage form. The tubes were placed in a 37° C. temperature-controlled chamber, and 1.8 mL PBS at pH 6.5 and 290 mOsm/kg, containing 7.3 mM sodium taurocholic acid and 1.4 mM of 1-palmitoyl-2-oleyl-sn-glycero-3-phosphocholine, was added to each respective tube. The samples were quickly mixed using a vortex mixer for about 60 seconds. The samples were centrifuged at 13,000 G at 37° C. for 1 minute. The resulting supernatant solution was then sampled and diluted 1:6 (by volume) with methanol and then analyzed by HPLC as described above. The contents of each tube were mixed on the vortex mixer and allowed to stand undisturbed at 37° C. until the next sample was taken. Samples were collected at 4, 10, 20, 40, 90, and 1200 minutes.
A similar test was performed with crystalline Compound A alone (Example 1), and a sufficient amount of material was added so that the concentration of compound would have been 200 μgA/mL, if all of the compound had dissolved.
The concentrations of Compound A obtained in these samples were used to determine the maximum dissolved concentration of Compound A (“MDC90”) and the area under the concentration-versus-time curve (“AUC90”) during the initial ninety minutes.
For these tests, a sufficient amount of material was added so that the concentration of Compound A would have been 200 μgA/mL, if all of the compound had dissolved. The results for the solid amorphous dispersion of Example 2 are included in Table 6, as are the results for tests with pure amorphous Compound A (Example 1) and crystalline Compound A (Example 1).

[3] = in vitro dissolution test in MFD solution, material added directly; details: MFD solution pH 6.5, 37° C., 200 μgA/mL dosed, no OPC pre-wetting
Procedure: An in vitro dissolution test was performed to determine the dissolution performance of the solid amorphous dispersion of Compound A relative to crystalline Compound A. For this test, a sufficient amount of material was added to a microcentrifuge test tube so that the concentration of Compound A would have been 200 μgA/mL, if all of the compound had dissolved. The test was run in duplicate. The tubes were placed in a 37° C. temperature-controlled chamber, and 1.8 mL PBS at pH 6.5 and 290 mOsm/kg, containing 7.3 mM sodium taurocholic acid and 1.4 mM of 1-palmitoyl-2-oleyl-sn-glycero-3-phosphocholine, was added to each respective tube. The samples were quickly mixed using a vortex mixer for about 60 seconds. The samples were centrifuged at 13,000 G at 37° C. for 1 minute. The resulting supernatant solution was then sampled and diluted 1:6 (by volume) with methanol and analyzed by high-performance liquid chromatography (HPLC). HPLC analysis was performed using a Waters C18 column. The mobile phase consisted of 65% 20 mM ammonium phosphate, adjusted to pH 3 with H3PO4, and 35% acetonitrile. UV absorbance was measured at 350 nm. The contents of each tube were mixed on the vortex mixer and allowed to stand undisturbed at 37° C. until the next sample was taken. Samples were collected at 4, 10, 20, 40, 90, and 1200 minutes. […]

Which pKa (pKa of Compound A) does the source give for `CNC(=O)c1ccccc1Sc1ccc2c(/C=C/c3ccccn3)n[nH]c2c1` [Compound A, 6-[2-(methylcarbamoyl)phenylsulfanyl]-3-E-[2-(pyridin-2-yl)ethenyl]indazole] here?
The pKa was about 4.2.

And the solubility [1]?
The solubility was about 4 µg/mL (≈ 10.3 µM).

What does the source list for `CNC(=O)c1ccccc1Sc1ccc2c(/C=C/c3ccccn3)n[nH]c2c1` [Crystalline Compound A, 6-[2-(methylcarbamoyl)phenylsulfanyl]-3-E-[2-(pyridin-2-yl)ethenyl]indazole]?
AUC90 (area under the concentration-versus-time curve during the initial ninety minutes) ([2]; OPC model): 300 min * μgA/mL; MDC90 (maximum dissolved concentration during the initial ninety minutes) [2]: 3 μgA/mL; AUC90 (area under the concentration-versus-time curve during the initial ninety minutes) [3]: 200 min * μgA/mL; MDC90 (maximum dissolved concentration during the initial ninety minutes) [3]: 3 μgA/mL

For `CNC(=O)c1ccccc1Sc1ccc2c(/C=C/c3ccccn3)n[nH]c2c1` [Example 1, 6-[2-(methylcarbamoyl)phenylsulfanyl]-3-E-[2-(pyridin-2-yl)ethenyl]indazole], which “AUC90 (area under the concentration-versus-time curve during the initial ninety minutes)” value ([2]; OPC model) is on record?
Its value is 1700 min * μgA/mL.

And the “MDC90 (maximum dissolved concentration during the initial ninety minutes)” value [2]?
The value was 48 μgA/mL.

And the “AUC90 relative to crystalline Compound A” value ([2]; OPC model, MFD solution)?
Its value is 5.7 fold.

What about the “MDC90 relative to crystalline Compound A” value ([2]; OPC model, MFD solution) of the same compound?
The value was 16 fold.
